For three compounds, IC50 results are on record in patent publication US20240425518A1, “N-MACROCYCLIC AMIDE COMPOUNDS, PREPARATION METHODS THEREOF AND APPLICATIONS THEREOF AS MEDICAMENTS” (Chengdu FANXI Biopharma Co., Ltd., priority 2023, published 2024).

Assay [1] has as its system HT1080 Human fibrosarcoma cells. Briefly: MTT cell proliferation inhibition, HT1080. Type of assay: cell-based. To be noted: HT-1080, HT1080, 72 hours. The method, then: (§1) Human cancer cells were purchased from ATCC. The cells were cultured in a culture medium according to the work instruction of ATCC. A dose-response curve was drawn by XL-fitting to determine an IC50 value of a compound. […] Cell proliferation inhibition could be detected by a MTT method (3-(4,5-Dimethylthiazol-2-yl)-2,5-diphenyltetrazolium bromide, and MTT; and 3-(4,5-dimethyl thiazole-2)-2,5-diphenyltertazolium bromide, and thiazolyl blue).
(§2) The cells were cultured in a culture dish first, and the cells in a logarithmic growth phase were inoculated into a 96-well plate (3,000 to 5,000 adherent cells/well, 10,000 to 30,000 suspended cells/well) according to a specific number, with 100 microliters per well, and then cultured in an incubator of 5% CO2 and 37° C. […] An absorbance of a general control group should be a normal value between 0.8 and 1.2. After obtaining absorbance data, a change curve of an inhibition rate was fitted by GraphPad Prism6.03 software and an IC50 value was calculated.
(§3) Calculation of drug inhibition rate: relative cell proliferation inhibition rate=[(control group A570−experimental group A570)/control group […], wherein A570 represented the absorbance at 570 nm.

Assay [2] relates to HGC-27 Human gastric cancer cells. Briefly: MTT cell proliferation inhibition, HGC-27. Format: cell-based. Conditions: HGC-27, 72 hours. The method, then: as §1, §2, §3
In the next assay the test system is U266 Human myeloma cells. Description: MTT cell proliferation inhibition, U266. Format: cell-based. Conditions: U-266, U266, 72 hours. As for the experimental part: as §1, §2, §3
In assay [3] the test system is K562 Human acute myelogenous leukemia. Briefly: MTT cell proliferation inhibition, K562. Type of assay: cell-based. To be noted: K562, 72 hours. The method, then: as §1, §2, §3
In assay [4] the test system is Aspc-1 Human pancreatic cancer cells. Description: MTT cell proliferation inhibition, Aspc-1. Type of assay: cell-based. To be noted: ASPC1, Aspc-1, 72 hours. The method, then: as §1, §2, §3
A further assay deals with T1, Ret (V804M) (h) (Homo sapiens, UniProt P07949, V804M).
T1 construct: purchased Eurofins
Description: Radioisotope labeling kinase assay (Eurofins), Ret (V804M). Type of assay: biochemical. As for the experimental part: An activity to a human recombinant protein kinase of a series of compounds was determined by a radioisotope labeling method, which was provided by Eurofins Company. A compound to be detected was mixed with a corresponding protein kinase buffer (20 mM propyl sulfonate (MOPS, […].), 1 mM EDTA, 0.10 β-mercaptoethanol, 0.010 Brij-35, […], and 1 mg/mL BSA), the mixture was added into a reaction system (100 μM reaction substrate […], 8 mM MOPS with a pH value of 7.0, 10 mM MgAcetate, 0.2 mM EDTA, and a certain concentration of γ-^33P-ATP). After adding an MgATP composite solution, the reaction was started at room temperature for 40 minutes, and the reaction was terminated by adding 5 μl of […] solution. Then, 10 μl of reaction solution was dropwise added onto a filter and washed with 75 mM phosphoric acid solution for three times, 5 minutes each time, then washed with methanol once again, and dried and subjected to scintillation counting.

T1 sequence (P07949 29-1114 V804M): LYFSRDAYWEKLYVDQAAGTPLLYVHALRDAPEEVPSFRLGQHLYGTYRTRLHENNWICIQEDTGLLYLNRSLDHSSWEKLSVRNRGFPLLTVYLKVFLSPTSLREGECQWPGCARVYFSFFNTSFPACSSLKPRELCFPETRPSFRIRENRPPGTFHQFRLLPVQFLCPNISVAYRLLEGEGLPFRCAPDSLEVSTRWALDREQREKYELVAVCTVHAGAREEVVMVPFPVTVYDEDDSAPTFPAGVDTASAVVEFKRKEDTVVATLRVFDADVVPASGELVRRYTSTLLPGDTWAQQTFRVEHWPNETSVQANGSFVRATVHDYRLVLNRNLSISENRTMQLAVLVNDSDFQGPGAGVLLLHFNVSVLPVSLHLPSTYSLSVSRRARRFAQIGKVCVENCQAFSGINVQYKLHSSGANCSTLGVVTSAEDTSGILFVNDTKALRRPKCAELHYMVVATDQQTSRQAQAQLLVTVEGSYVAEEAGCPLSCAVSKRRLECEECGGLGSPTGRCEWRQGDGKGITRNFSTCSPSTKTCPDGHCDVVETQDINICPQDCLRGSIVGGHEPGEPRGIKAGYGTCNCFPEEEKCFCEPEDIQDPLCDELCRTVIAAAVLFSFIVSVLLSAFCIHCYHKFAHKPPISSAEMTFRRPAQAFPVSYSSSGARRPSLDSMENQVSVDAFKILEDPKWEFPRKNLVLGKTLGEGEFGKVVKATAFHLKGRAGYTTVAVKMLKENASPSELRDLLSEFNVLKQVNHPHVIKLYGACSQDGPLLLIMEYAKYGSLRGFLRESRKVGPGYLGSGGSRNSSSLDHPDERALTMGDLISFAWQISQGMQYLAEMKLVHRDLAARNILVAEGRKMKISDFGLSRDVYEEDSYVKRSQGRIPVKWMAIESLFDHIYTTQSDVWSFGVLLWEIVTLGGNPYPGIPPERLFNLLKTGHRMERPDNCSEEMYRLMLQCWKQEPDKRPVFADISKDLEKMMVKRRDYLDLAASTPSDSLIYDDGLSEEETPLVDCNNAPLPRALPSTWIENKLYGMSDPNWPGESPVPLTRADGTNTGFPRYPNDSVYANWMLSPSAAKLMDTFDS

One may read the IC50 as the concentration that inhibits the measured activity by half. Read a high IC50 as weaker potency. In the case of `O=C(/C=C/CN1CCOCC1)Nc1cc2cc(c1)Nc1nccc(n1)-c1cccc(c1)COC/C=C/COC2` [XVI-3], the IC50 is 1580 nM in assay [1]; 495 nM in assay [2]; 2700 nM in the assay with U266 Human myeloma cells; 2880 nM in assay [3]; 2480 nM in assay [4].

`O=C(/C=C/CN1CCCC1)Nc1cc2cc(c1)Nc1nccc(n1)-c1cccc(c1)COC/C=C/COC2` [XVI-1]: the IC50 in assay [1] came to 706 nM; in assay [2] it was 110 nM; in the assay with U266 Human myeloma cells it was 614 nM; in assay [3], 470 nM; in assay [4], 689 nM.

`C1=C/COCc2cccc(c2)-c2ccnc(n2)Nc2cc(cc(OC/C=C/CN3CCCC3)c2)COC/1` [XVI-12]: the IC50 at Ret (V804M) (h) was 122 nM.
